Measured values reported in ChEMBL document CHEMBL2086331, “Novel triazolopyridylbenzamides as potent and selective p38α inhibitors” (Bioorg Med Chem Lett, 2012).

Tested on: Blood
Test: Inhibition of LPS-induced TNFalpha production in human whole blood
Format: functional, tissue-based

Row | IC50 [nM] | SMILES
1 | 84 | Cc1c(F)cc(C(=O)NC2CC2)cc1-c1ccn2c(C(C)(C)N(C)C)nnc2c1
2 | 1110 | Cc1c(F)cc(C(=O)NC2CC2)cc1-c1ccn2c(C(C)(C)NS(C)(=O)=O)nnc2c1
3 | 1840 | Cc1c(F)cc(C(=O)NC2CC2)cc1-c1ccn2c(C(N)=O)nnc2c1
4 | 7.2 | Cc1c(F)cc(C(=O)NC2CC2)cc1-c1ccn2c(-c3ccccc3Cl)nnc2c1
5 | 550 | Cc1c(F)cc(C(=O)NC2CC2)cc1-c1ccn2c(C3CCC3)nnc2c1
6 | 84 | Cc1c(F)cc(C(=O)NC2CC2)cc1-c1ccn2c(-c3ccncc3Cl)nnc2c1
7 | 105 | Cc1c(F)cc(C(=O)NC2CC2)cc1-c1ccn2c(C(C)(C)O)nnc2c1
8 | 117 | Cc1c(F)cc(C(=O)NC2CC2)cc1-c1ccn2c(C3(C)CC3)nnc2c1
9 | 278 | COC(C)(C)c1nnc2cc(-c3cc(C(=O)NC4CC4)cc(F)c3C)ccn12

The next lines start with the molecule.

Row | SMILES | IC50 [nM]
10 | Cc1c(F)cc(C(=O)NC2CC2)cc1-c1c(F)cn2c(C(C)(C)N(C)C)nnc2c1F | 124
11 | Cc1ccc(C(=O)NC2CC2)cc1-c1ccn2c(C3CCOCC3)nnc2c1 | 667
12 | Cc1c(F)cc(C(=O)NC2CC2)cc1-c1c(F)cn2c(C3CC3)nnc2c1F | 1470
13 | Cc1c(F)cc(C(=O)NC2CC2)cc1-c1c(F)cn2c(-c3ccncc3Cl)nnc2c1F | > 5000
14 | Cc1ccc(C(=O)NC2CC2)cc1-c1ccn2c(C(C)C)nnc2c1 | 42
15 | Cc1ccc(C(=O)NC2CC2)cc1-c1ccc2c(N3CCCCC3)noc2c1 | 98
16 | Cc1ccc(C(=O)NC2CC2)cc1-c1ccn2c(C3CCC3)nnc2c1 | 670
